Like-named read-outs stand apart in the source and are kept apart here.
Biological target: T1, purified recombinant HCMV polymerase (UL54) (Human cytomegalovirus, UniProt P08546)
T1 construct: made in house; host or cells: Sf21 insect cells (baculovirus)
Assay: HCMV Polymerase LANCE TR-FRET Assay
Type: biochemical
Experimental: The codon optimized UL54 HCMV polymerase gene for expression in insect cells is obtained from DNA 2.0 (Menlo Park, Calif.) and subcloned in 3′ of the Glutathione-S-transferase (GST) gene in a pFastBac-derived vector. Bacmids and baculoviruses are generated and expression performed in Sf21 insect cells cultured in SF900 II SFM media. Infection using the baculoviruses is performed using an MOI of 5-10 and the cells are harvested 48 h post-infection and frozen.
All purification procedures are performed at 4° C. The cell pellet from 1 L of culture (1×10^9 cells) is resuspended in 25 mL of 50 mM Tris pH 7.5, 1 mM TCEP, 0.1 mM EDTA, 150 mM NaCl, 10% Glycerol, 1 mM PMSF, 2 μg/mL Leupeptin, 2 μg/mL Antipain, 2 μg/mL Pepstatin A. The solution is homogenized using a Dounce tissue grinder. Following homogenization, the volume is increased to 40 mL followed by centrifugation at 750×g for 5 min to remove nuclei. The supernatant is then transferred and 3 cc of 50% slurry of glutathione-sepharose 4B resin is added. The mixture is incubated on a rotator for 1 h. The slurry is centrifuged at 500 g for 5 min. The supernatant is discarded and the pellet is resuspended in 10× volume of wash buffer (50 mM Tris pH 7.5, 1 mM TCEP, 0.1 mM EDTA, 150 mM NaCl, 10% Glycerol) and incubated for 5 min. The slurry is centrifuged at 500 g for 5 min and the supernatant is discarded. The wash step is performed 5 times. The elution is performed by adding 1.5 volume of elution buffer (50 mM Tris pH 7.5, 1 mM TCEP, 0.1 mM EDTA, 150 mM NaCl, 10% Glycerol, 20 mM glutathione) and incubating on a rotator for 15 min. The slurry is centrifuged at 500 g for 5 min and the supernatant is removed and kept. The elution step is performed four times. The supernatants are pooled and centrifuged at 500×g for 5 min to remove resin particles and frozen at −80° C.
The frozen protein is thawed and the NaCl concentration reduced to 37.5 mM by the addition of 3 volumes of DEAE buffer A (50 mM Tris pH 7.5, 1 mM TCEP, 0.1 mM EDTA, 10% Glycerol). The protein is loaded on a HiTrap DEAE-Sepharose μF column and eluted using a gradient with DEAE buffer B (50 mM Tris pH 7.5, 1 mM TCEP, 0.1 mM EDTA, 10% Glycerol, 1 M NaCl). UL54 eluted at 140 mM NaCl. The DEAE fractions are pooled, frozen and stored at −80° C. The protein concentration is determined by OD280 (A280=1.03 mg/mL).
This non-radiometric assay determines the enzymatic activity of purified recombinant HCMV polymerase (UL54) using a Digoxigenin-labeled oligonucleotide priming a heteropolymeric template. The enzymatic activity is determined by incorporating Biotin-dUTP in the nascent complementary strand. The signal is generated by Fluorescence Resonance Energy Transfer from the donor (Anti-Digoxigenin-Europium Chelate binding with the primer) to the acceptor Streptavidin-AlloPhycoCyanin (SA-APC) binding to the biotin of the labeled nucleotides incorporated in proximity.
Serial dilutions of the DMSO stock compound solution are performed using DMSO in columns 2-11 and 14-23. DMSO alone is present in columns 1, 12, 13 and 24. The plate is centrifuged at 200×g for 30 sec. 35 μL of compound dilution buffer (10 mM Hepes pH 7.5, 25 mM KCl, 5 mM MgCl2, 1 mM TCEP) is added to 5 μL of the diluted compound in DMSO to obtain 12.5% DMSO. 4 μL per well of the 12.5% DMSO serial dilution compound solution is added to the assay plate.
The assay conditions are the following: 10 mM HEPES pH 7.5, 25 mM KCl, 7.5 mM NaCl, 5 mM MgCl2, 0.2 mg BSA/mL, 1 mM TCEP, 1.5% glycerol, 5% DMSO, 235 nM dATP, 350 nM dCTP, 350 nM dGTP, 235 nM dTTP, 12 nM biotin-16-dUTP, 23.5 nM Dig-primer/template, 2 nM GST-UL54. The assay volume is 10 μL. […]

[1] = 2 nM GST-UL54, 37° C. for 30 min, 5% DMSO, read-out: Example 34 IC50

T1 sequence (P08546 whole entry): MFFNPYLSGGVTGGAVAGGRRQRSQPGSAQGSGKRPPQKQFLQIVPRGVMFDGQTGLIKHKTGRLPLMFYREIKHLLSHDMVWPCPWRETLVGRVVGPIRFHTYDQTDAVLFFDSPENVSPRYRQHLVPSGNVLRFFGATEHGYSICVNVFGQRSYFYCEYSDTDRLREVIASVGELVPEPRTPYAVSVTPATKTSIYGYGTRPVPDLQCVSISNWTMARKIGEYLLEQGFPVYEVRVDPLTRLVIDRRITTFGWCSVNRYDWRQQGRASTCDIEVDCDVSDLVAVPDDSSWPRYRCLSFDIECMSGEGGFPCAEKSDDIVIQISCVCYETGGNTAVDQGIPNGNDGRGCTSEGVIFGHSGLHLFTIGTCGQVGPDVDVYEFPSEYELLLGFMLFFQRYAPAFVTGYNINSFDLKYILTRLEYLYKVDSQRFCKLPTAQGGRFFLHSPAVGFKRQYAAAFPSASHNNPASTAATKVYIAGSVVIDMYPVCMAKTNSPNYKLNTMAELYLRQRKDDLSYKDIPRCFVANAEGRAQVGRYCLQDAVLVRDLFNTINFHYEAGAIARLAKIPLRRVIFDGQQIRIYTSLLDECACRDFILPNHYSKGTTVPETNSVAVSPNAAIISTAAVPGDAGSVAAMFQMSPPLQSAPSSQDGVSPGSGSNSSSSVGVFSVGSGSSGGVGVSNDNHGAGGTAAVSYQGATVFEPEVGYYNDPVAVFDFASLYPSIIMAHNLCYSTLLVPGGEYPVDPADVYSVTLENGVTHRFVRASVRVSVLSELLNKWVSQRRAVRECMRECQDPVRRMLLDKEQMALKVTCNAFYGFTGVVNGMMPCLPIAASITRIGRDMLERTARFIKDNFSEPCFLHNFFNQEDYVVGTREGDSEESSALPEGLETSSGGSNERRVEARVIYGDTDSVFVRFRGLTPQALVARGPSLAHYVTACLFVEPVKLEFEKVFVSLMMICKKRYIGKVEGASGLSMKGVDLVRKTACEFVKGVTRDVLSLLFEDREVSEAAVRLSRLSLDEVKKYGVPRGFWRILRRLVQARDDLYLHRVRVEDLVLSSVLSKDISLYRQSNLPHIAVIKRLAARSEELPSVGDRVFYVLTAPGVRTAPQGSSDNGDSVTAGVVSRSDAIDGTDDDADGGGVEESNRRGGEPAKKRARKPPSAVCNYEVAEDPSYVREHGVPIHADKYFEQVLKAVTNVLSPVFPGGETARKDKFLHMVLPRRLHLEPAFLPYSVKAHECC

SMILES: Cn1c(N2CCCC2=O)nc2cnc3c(cc(C(=O)NCc4ccc(Cl)cc4)c(=O)n3CC(=O)N3CC(C)(F)C3)c21 [Compound 1038]
- IC50 [1]: 78 nM

SMILES: Cc1cc(Cl)ccc1CNC(=O)c1cc2c3c(cnc2n(CC(=O)N2CC(C)(F)C2)c1=O)nc(C)n3C [Compound 5038]
- IC50: 140 nM

SMILES: CCn1cnc2cnc3c(cc(C(=O)NCc4ccc(Cl)cc4)c(=O)n3CC(=O)N3CC(C)(F)C3)c21 [Compound 1004]
- IC50 [1]: 26 nM

SMILES: CC1(F)CN(C(=O)Cn2c(=O)c(C(=O)NCc3ccc(Cl)cc3)cc3c4c(cnc32)nc2n4CCOC2)C1 [Compound 5002]
- IC50 [1]: 69 nM

SMILES: CN(C)c1nc2c3cc(C(=O)NCc4ccc(Cl)cc4)c(=O)n(CC(=O)N4CC(C)(F)C4)c3ncc2n1C [Compound 2017]
- IC50 [1]: 210 nM

SMILES: Cc1nc2cnc3c(cc(C(=O)NCc4ccc(Cl)cc4)c(=O)n3CC(=O)N(C)CC(C)(C)CO)c2n1C [Compound 1073]
- IC50 [1]: 42 nM

SMILES: COc1nc2cnc3c(cc(C(=O)NCc4ccc(Cl)cc4)c(=O)n3CC(=O)N3CC(C)(C#N)C3)c2n1C [Compound 1074]
- IC50 [1]: 75 nM

SMILES: Cn1c(N2CCOCC2)nc2cnc3c(cc(C(=O)NCc4ccc(Cl)cc4)c(=O)n3CC(=O)N3CC(C)(F)C3)c21 [Compound 1056]
- IC50 [1]: 110 nM

SMILES: Cn1cc(N2CCOc3c2cnc2c3cc(C(=O)NCc3ccc(Cl)cc3)c(=O)n2CC(=O)N2CC(C)(F)C2)cn1 [Compound 5015]
- IC50 [1]: 200 nM

SMILES: CC1(F)CN(C(=O)Cn2c(=O)c(C(=O)NCc3ccc(Cl)cc3)cc3c4nc5n(c4cnc32)CCC5)C1 [Compound 5004]
- IC50 [1]: 77 nM

SMILES: Cn1c(=O)n(C)c2c3cc(C(=O)NCc4ccc(Cl)cc4)c(=O)n(CC(=O)N4CC(C)(F)C4)c3ncc21 [Compound 5006]
- IC50 [1]: 89 nM

SMILES: CC1(C)CN(C(=O)Cn2c(=O)c(C(=O)NCc3ccc(Cl)cc3)cc3c4c(cnc32)NC(C)(C)CO4)C1 [Compound 5022]
- IC50 [1]: 460 nM

SMILES: CC1(C)CN(C(=O)Cn2c(=O)c(C(=O)NCc3ccc(Cl)cc3)cc3c4c(cnc32)-c2ccccc2CO4)C1 [Compound 5012]
- IC50 [1]: 160 nM

SMILES: Cc1nc2c3cc(C(=O)NCc4ccc(C#N)cc4)c(=O)n(CC(=O)N4CC(C)C4)c3ncc2n1C [Compound 4003]
- IC50 [1]: 93 nM

SMILES: COCc1nc2cnc3c(cc(C(=O)NCc4ccc(Cl)cc4)c(=O)n3CC(=O)N3CC(C)(F)C3)c2n1C [Compound 1031]
- IC50 [1]: 58 nM

SMILES: Cc1cn(C)c2c1cnc1c2cc(C(=O)NCc2ccc(Cl)cc2)c(=O)n1CC(=O)N1CC(C)C1 [Compound 5007]
- IC50 [1]: 65 nM

SMILES: Cc1nc2cnc3c(cc(C(=O)NCc4ccc(Cl)cc4)c(=O)n3CC(=O)N3CC(C)(F)C3)c2nc1C [Compound 5037]
- IC50 [1]: 440 nM

SMILES: CC1(C)CN(C(=O)Cn2c(=O)c(C(=O)NCc3ccc(Cl)cc3)cc3c4c(cnc32)NCCN4)C1 [Compound 5021]
- IC50 [1]: 330 nM

SMILES: Cn1cc(-c2nc3cnc4c(cc(C(=O)NCc5ccc(Cl)cc5)c(=O)n4CC(=O)N4CC(C)(F)C4)c3n2C)cn1 [Compound 1016]
- IC50 [1]: 74 nM

SMILES: COc1cc(CNC(=O)c2cc3c4c(cnc3n(CC(=O)N3CC(C)(F)C3)c2=O)nc(C)n4C)ccc1Cl [Compound 5048]
- IC50 [1]: 170 nM

SMILES: Cc1nc2cnc3c(cc(C(=O)NCc4ccc(Cl)c(O)c4)c(=O)n3CC(=O)N3CC(C)(F)C3)c2n1C [Compound 5046]
- IC50 [1]: 190 nM

SMILES: Cc1nc2cnc3c(cc(C(=O)NCc4ccc(Cl)cc4)c(=O)n3CC(=O)N3CC(F)(CO)C3)c2n1C [Compound 1065]
- IC50 [1]: 35 nM

SMILES: Cn1c(-n2ccnc2)nc2cnc3c(cc(C(=O)NCc4ccc(Cl)cc4)c(=O)n3CC(=O)N3CC(C)(F)C3)c21 [Compound 1061]
- IC50 [1]: 60 nM

SMILES: COc1nc2c(cc(C(=O)NCc3ccc(Cl)cc3)c(=O)n2CC(=O)N2CC(C)(F)C2)c2c1nc(C)n2C [Compound 5035]
- IC50 [1]: 240 nM

SMILES: CC1(F)CN(C(=O)Cn2c(=O)c(C(=O)NCc3ccc(Cl)cc3)cc3c4c(cnc32)ncn4CCO)C1 [Compound 1024]
- IC50 [1]: 29 nM

SMILES: Cc1nc2cnc3c(cc(C(=O)NCc4ccc(Cl)cc4)c(=O)n3CC(=O)N3CC4(C3)NCC4(F)F)c2n1C [Compound 1072]
- IC50 [1]: 260 nM

SMILES: Cc1nc2cnc3c(cc(C(=O)NCc4ccc(Cl)cc4)c(=O)n3CC(=O)N3CC(C)(F)C3)c2n1C [Compound 1002]
- IC50 [1]: 38 nM

SMILES: Cc1nc2cnc3c(cc(C(=O)NCc4ccc(Cl)cc4)c(=O)n3CC(=O)N3CC(F)(CF)C3)c2n1C [Compound 1007]
- IC50 [1]: 48 nM

SMILES: CN(C)Cc1nc2cnc3c(cc(C(=O)NCc4ccc(Cl)cc4)c(=O)n3CC(=O)N3CC(C)(C)C3)c2n1C [Compound 1070]
- IC50 [1]: 61 nM

SMILES: Cc1nc2cnc3c(cc(C(=O)NCc4ccc(C#N)cc4)c(=O)n3CC(=O)N3CC(C)(F)C3)c2n1C [Compound 3001]
- IC50 [1]: 140 nM

Reference: patent US9249158B2, “Cytomegalovirus inhibitor compounds” (Boehringer Ingelheim International GmbH, priority 2012, dated 2016)
